Several values for one entry are separate records, joined by “and”; a condition that tells them apart may be missing. Equal entries are not always repeated. Where two headings read alike, the source gives them in different places. Bounds are passed on as bounds.

The test system of data set [1] is morphine antinociceptive effect in mice. The settings on record: antagonizing morphine 10 mg/kg; s.c.; cited from earlier work.
In data set [2] the test system is morphine antinociception in mice. The data set can be described thus: Warm-water tail immersion test, blockade of morphine antinociception (Example 2). Format: in vivo, mouse (Swiss Webster). The conditions noted are these: s.c., 5 min before morphine 10 mg/kg s.c.; 56 °C.
Data set [3] addresses DOR (UniProt P41143). The data set can be described thus: DOR [35S]GTPγS binding assay (Example 5). Format: biochemical. Further details: Ki δ; four experiments; other: three experiments; other: SNC80 5 μM; Ki δ. As for the experimental part: (§1) The KOR full agonist 2-(3,4-dichlorophenyl)-N-methyl-N-[(1R,2R)-2-pyrrolidin-1-ylcyclohexyl]acetamide 17 (U50,488)41 and DOR full agonist 4-[(R)-[(2S,5R)-4-allyl-2,5-dimethylpiperazin-1-yl](3-methoxyphenyl)methyl]-N,N-diethylbenzamide 18 (SNC80)42 were included in the assays as reference compounds for a maximal effect at the KOR and the DOR, respectively.
(§2) The radioligand binding assay and the [^35S]GTPγS binding assay were conducted using monoclonal OR-expressed Chinese hamster ovarian (CHO) cell lines as described previously.^22,29,36,37 Briefly, for the competition binding assay, [^3H]NLX, [^3H]DPN, and [^3H]NTI were used to label the MOR, the KOR, and the DOR, respectively. Aliquots of a membrane protein (30 μg) were incubated with the corresponding radioligand in the presence of different concentrations of the ligand under investigation in TME buffer (50 mM Tris, 3 mM MgCl2, 0.2 mM EGTA, pH 7.7) at 30° C. for 1.5 h. The bound radioactive ligand was separated from the free radioligand by filtration using the Brandel harvester (Biomedical Research & Development Laboratories, MD). […] The potency of the drugs in displacing the specific binding of the radioligand was determined by linear regression analysis of Hill plots. […] The [^35S]GTPγS functional assays were conducted in the same cell membranes used for the receptor binding assays. Membrane proteins (10 μg) were incubated with varying concentrations of compounds, GDP (10 μM) and 0.1 nM [^35S]GTPγS in assay buffer (50 mM Tris, 3 mM MgCl2, 100 mM NaCl, 0.2 mM EGTA, pH 7.7) for 1.5 h at 30° C. Nonspecific binding was determined with 20 μM unlabeled GTPγS.

For data set [4], the target named is DOR (UniProt P41143). The format is binding. Further details: Ki δ; four experiments; other: three experiments; other: SNC80 5 μM; Ki δ.
For data set [5], the target named is T1, MOR (Mus musculus, UniProt P42866). The data set can be described thus: [35S]GTPγS functional assay (Example 1). Format: biochemical. Further details: expressed in transfected cells; host or cells: CHO (Chinese hamster ovary) cell line, membrane preparation.
Data set [6] concerns the target T2, KOR (Homo sapiens, UniProt P41145).
T2 construct: expressed in transfected cells; host or cells: CHO (Chinese hamster ovary) cell line, membrane preparation
Kind of data set: Competitive radioligand binding, [3H]diprenorphine, OR-expressed CHO membranes (Examples 5 and 6).

Data set [7] deals with T1, MOR. The data set can be described thus: biochemical. The conditions noted are these: read-out: MOR [35S]GTPγS Binding % Emax of DAMGO.
Data set [8] addresses T2, KOR. The data set can be described thus: KOR [35S]GTPγS binding assay (Example 5). Format: biochemical. The settings on record: for Emax: read-out: KOR [35S]GTPγS Binding % Emax of U50,488. The method, then: as §1, §2
For data set [9], the target named is T1, MOR. The data set can be described thus: Competitive radioligand binding, [3H]naloxone, OR-expressed CHO membranes (Examples 5 and 6). Further details: expressed in transfected cells; host or cells: CHO (Chinese hamster ovary) cell line, membrane preparation. The conditions noted are these: Table 8; Ki ratio.
Data set [10] relates to morphine antinociceptive effect in mice. Kind of data set: Warm-water tail immersion assay, antagonism of morphine antinociception (Example 5). The format is in vivo, mouse (Swiss-Webster). The settings on record: antagonizing morphine 10 mg/kg; s.c.
The target in data set [11] is T1, MOR. The settings on record: [35S]GTPγS assays.
Data set [12] has as its target T1, MOR. Kind of data set: 35S-GTP[γS]-binding functional assay in MOR expressing CHO cells (Example 2). Further details: expressed in transfected cells; host or cells: CHO (Chinese hamster ovary) cell line, membrane preparation. The format is biochemical. The method, then:
Furthermore, these systems express the receptor at high density to provide optimal signal-to-noise ratios in the radioligand and ^35S-GTP[γS] binding assays.
Aliquots of a membrane preparation were incubated with the radioligands in the presence of different concentrations of the drug under investigation at 30° C. for 1 h. […] The potency of the drugs in displacing the specific binding of the radioligand was determined from data using linear regression analysis of Hill plots. The IC50 values will then be determined and corrected to K1 values using the Cheng-Prusoff equation. Functional assays, including ^35S-GTP[γS]-binding assay were conducted in the same cell membranes used for the receptor binding assays.

Data set [13] addresses mu, delta and kappa opioid receptors. The conditions noted are these: cited from earlier work.
Data set [14] relates to patients with OIC. The conditions noted are these: cited from earlier work.
The test system of data set [15] is chronic morphine-exposed mice. Kind of data set: Opioid withdrawal assays in morphine-pelleted mice. The settings on record: naltrexone 1 mg/kg, counted over 20 minutes.
The mark [16] stands for this setting: read-out: DOR [35S]GTPγS Binding EC50; three experiments.
Where [17] appears, read: read-out: Ki δ; Table 8 (NAQ analogues); four experiments.

As for “17-Cyclopropylmethyl-3,14β-dihydroxy-4,5α-epoxy-6α-[(3′-isoquinolyl)acetamido]morphinan [Compound 9]”, the “AD50 values (data taken from Li, et al.)” value in data set [1] was 0.45 (0.27-0.78) mg/kg (95% CL). In addition, the “AD50 value for blockade of morphine antinociception” value in data set [2] was 0.456 (0.277 to 0.789) mg/kg (95% C.L.). In data set [3] (SNC80 5 μM), the “DOR [35S]GTPγS Binding % Emax of SNC80” value was 53.5 ± 5.4%. Further, the EC50 in [3] (three experiments; read-out: DOR [35S]GTPγS Binding EC50) was 98.6 ± 23.7 nM. Moreover, the Ki in data set [4] (Table 8 (NAQ analogues); four experiments; read-out: Ki δ) and in [4] (Table 12 (Example 6); read-out: Ki δ) was 162 ± 15 nM in each case.
In the case of `C[C@@H](O)[C@H](NC(=O)[C@H]1NC(=O)[C@H]([C@@H](C)O)NC(=O)[C@H](CCCNC(=N)N)NC(=O)[C@@H](Cc2c[nH]c3ccccc23)NC(=O)[C@H](Cc2ccc(O)cc2)NC(=O)[C@@H](NC(=O)[C@H](N)Cc2ccccc2)CSSC1(C)C)C(N)=O` [CTAP, D-Phe-Cys-Tyr-D-Trp-Arg-Thr-Pen-Thr-NH2], the “Percent Max of DAMGO” value in data set [5] (Emax of compound vs Emax of DAMGO (normalized to 100%)) was 0.00%.
In the case of `COc1c(C(=O)N[C@H]2CC[C@@]3(O)[C@H]4Cc5ccc(O)c6c5[C@@]3(CCN4CC3CC3)[C@H]2O6)nc(Cl)c2ccccc12` [Compound 4, 17-Cyclopropylmethyl-3,14β-dihydroxy-4,5α-epoxy-6α-(1-chloro-4-methoxyisoquinoline-3-carboxamido)morphinan], the inhibition constant Ki in [6] came out at 22.2 ± 2.1 nM; in data set [4] (setting [17]), 33.9 ± 0.5 nM. The figures for the Emax in [7] and in data set [8] were 51 ± 0.4% and 7.1 ± 0.5%, respectively. Also, the EC50 in data set [8] worked out at 26.4 ± 3.9 nM; in data set [3] (setting [16]) it was 32.6 ± 5.1 nM. Moreover, the “DOR [35S]GTPγS Binding % Emax of SNC80” value in [3] (SNC80 5 μM) is on record as 54.8 ± 0.1%.
Regarding `O=C(N[C@H]1CC[C@@]2(O)[C@H]3Cc4ccc(O)c5c4[C@@]2(CCN3CC2CC2)[C@H]1O5)c1cc2cc([N+](=O)[O-])ccc2cn1` [Compound 11, 17-Cyclopropylmethyl-3,14β-dihydroxy-4,5α-epoxy-6α-(6-nitroisoquinoline-3-carboxamido)morphinan], the “Selectivity δ/μ” value in data set [9] is given as 16. The “Selectivity κ/μ” value in [9] is given as 4.9. The Ki in data set [6] came to 27.9 ± 2 nM; in data set [4] (setting [17]), 94.7 ± 1.1 nM. Moreover, the AD50 values in data set [10] is listed as 0.92 (0.51-1.67) mg/kg (95% CL). Further, the Emax in [7] was 12.5 ± 1.4%; in [8] it was 21.1 ± 0.4%. The EC50 in data set [8] was 62.6 ± 10.4 nM; in data set [3] (setting [16]), 108.1 ± 0.8 nM. Moreover, the “DOR [35S]GTPγS Binding % Emax of SNC80” value in data set [3] (SNC80 5 μM) was found to be 67.7 ± 2.0%. Further, in [11], the “Functional Selectivity δ/μ” value was determined as 3.4. Moreover, the “Functional Selectivity κ/μ” value in [11] is 2.0.
Molecule `C[C@@H](NC(=O)[C@@H](N)Cc1ccc(O)cc1)C(=O)NCC(=O)N(C)[C@@H](Cc1ccccc1)C(=O)NCCO` [DAMGO, reference compound] displayed an Emax in data set [5] (DAMGO reference) of 366±23 % stimulation over basal. In addition, the “Emax (% Stim)” value in data set [12] (n=3) was found to be 366.5 ± 23.0 % Stim. Besides, the “Percent Max of DAMGO” value in data set [12] (normalized to full agonist DAMGO (3 μM)) was 100.0 ± 6.2%.
On to `C[N@+]1(CC2CC2)CC[C@]23c4c5ccc(O)c4O[C@H]2C(=O)CC[C@@]3(O)[C@H]1C5` [MNTX, methylnaltrexone], for which, in data set [13], the “Ki value ratio delta/mu” value is recorded as “≈ 24” and the “Ki value ratio kappa/mu” value is recorded as 10. For the same molecule, the “efficiency to induce SBM” value in [14] (human, in vivo) is listed as at most 62%. The “patients with laxation within 4 hours after the first dose” value in data set [14] (two major clinical trials, subcutaneous) was 48% and 62%.
As for `O=C1CC[C@@]2(O)[C@H]3Cc4ccc(O)c5c4[C@@]2(CCN3CC2CC2)[C@H]1O5` [Naltrexone], in data set [15], the escape jumps came to 30.0±12.1 and the wet-dog shakes turned out to be 14.8±2.2. Further, in data set [10], the AD50 values was 0.006 (0.003-0.014) mg/kg (95% CL).
On to `COc1cccc2c1[C@]13CCN(CC4CC4)[C@H](C2)[C@]1(OC)CCC(=O)C3` [cyprodime], for which, in data set [13], the “Ki value ratio delta/mu” value is given as “≈ 40” and the “Ki value ratio kappa/mu” value was “≈ 45”.
